IC50 and Selectivity data for nine compounds are collected here from patent US6274620A, “Thiophene integrin inhibitors” (BioChem Pharma Inc., priority 2000, dated 2001).

Structures are written as SMILES. Structures can show the parent of a compound that is named as a salt. Where only a bound is given, the exact number is not on record here.

Experiment [1] addresses T1, αvβ3 (Homo sapiens, UniProt P05106+P06756). As to the kind of experiment: Solid-phase assay: biotinylated-fibrinogen binding to immobilized αvβ3. As to conditions: for IC50: Solid Phase Assay, biotinylated-fibrinogen 10 nM, 2 hours at 37° C; for Selectivity: αIIbβ3 vs αvβ3 solid phase IC50. Also noted: placental αvβ3; from tissue; host or cells: placenta. The method, then: (§1) Assay 1. Fibrinogen Binding to Immobilized αIIbβ3 and αvβ3 (Solid-Phase Assays) The wells of plastic microtiter plates were coated overnight at 4° C. with purified active αIIbβ3 (Calbiochem) or placental αvβ3 at 0.5 ug/mL (100 uL/well) in a buffer containing 150 mM NaCl, 20 mM Tris, pH 7.4, 1 mM MgCl2, 0.2 mM MnCl2, and including 1 mM CaCl2 for αIIbβ3 Blocking of nonspecific sites was achieved by incubating the wells with 35 mg/mL bovine serum albumin (BSA) for at least 2 hours at 37° C. Biotinylated-fibrinogen (10 nM) was added in 0.2 mL binding buffer (100 mM NaCl, 50 mM Tris, pH 7.4, 1 mM MgCl2, 0.2 mM MnCl2 and 1 mg/mL BSA including 1 mM CaCl2 for αIIbβ3) to the wells in triplicate in the absence or presence of increasing concentrations of compounds of interest (0.001-100 uM) and further incubated for 2 hours at 37° C. Nonbound fibrinogen was removed by five washes with binding buffer. Avidin conjugated to alkaline phosphatase (Sigma), diluted in binding buffer, was added and incubated for two hours at 37° C. The plates were washed five times with binding buffer, and after addition of the substrate PNPP (Pierce), the enzyme activity was measured by the absorbance at 405 nm. The concentration of inhibitor required to inhibit 50% of biotinylated-fibrinogen binding was defined as IC50 determined by a nonlinear, sigmoidal dose response variable slope from the GraphPad Prism software.

Experiment [2] has as its target T2, αIIbβ3 (Homo sapiens, UniProt P05106+P08514).
T2 construct: purchased Calbiochem
The experiment can be described thus: Solid-phase assay: biotinylated-fibrinogen binding to immobilized αIIbβ3. Conditions: biotinylated-fibrinogen 10 nM, 2 hours at 37° C, 1 mM CaCl2, read-out: IC50 αIIbβ. The method, then: Assay 1. Fibrinogen Binding to Immobilized αIIbβ3 and αvβ3
as §1, with “The” for “Assay 1. Fibrinogen Binding to Immobilized αIIbβ3 and αvβ3 (Solid-Phase Assays) The”

In experiment [3] the target is T3, α5β1 (Homo sapiens, UniProt P05556+P08648).
T3 construct: Cells HT29, K562, or K562 transfected with αvβ3; endogenous in cells; host or cells: K562
The experiment can be described thus: Cell attachment assay, α5β1. Conditions: 1 hour at 37° C. It is filed as cell-based. The protocol:
(§2) The wells of 96-well plates (Immunolon) were coated, by incubation overnight at 4° C., with 5 ug/mL vitronectin, 2 ug/mL osteopontin, or fibronectin or 10 mg/mL BSA in PBS. The protein solution was flicked out and the wells were blocked with 10 mg/mL BSA (0.1 mL) for 1-2 hours at 37° C. Cells HT29, K562, or K562 transfected with αvβ3 (Blystone et al., 1994) were loaded with a fluorescent marker, 5-chloromethylfluorescein diacetate (Molecular Probes, Eugene, OR) for 1 hour at 37° C., then incubated in fresh medium without the fluorescent marker for 1 hour. Cells were lifted with trypsin-EDTA and washed two times with Hank's balanced salt solution minus cations (Sigma) supplemented with 1 mM MgCl2 Cells (75,000 cells/well) were added to coated plates in triplicate and allowed to attach at 37° C. for 1 hour in the presence or absence of specific antibodies (5 ug/mL) or 10-fold dilutions of compounds of interest starting at 10 uM. Nonadherent cells were removed by gentle washing twice with PBS. The adherent cells were solubilized with 1% triton x-100 and detected using a fluorescence plate reader (DYNEX Technologies). The number of attached cells was calculated based upon standard curves for each cell line used in the experiment. Non-specific cell attachment (attachment to wells coated with BSA) was always less than 5%.

Experiment [4] relates to B16F10. As to the kind of experiment: Cytotoxicity (MTT), B16F10. It is filed as cell-based. As to conditions: Mus musculus, B16-F10, 72 hours. The method, then: [The source words this procedure for another cell line and reports this cell line under the same test.] (§3) Assay 3. Cytotoxicity (MTT)
(§4) The wells of microtiter plates were seeded with 2000 cells/well T24, 2500 cells/well HT29 or 5000 cells/well HMVEC (Cell Systems) in 100 uL, followed by an overnight culture for cell adhesion. The next day, the media is supplemented with 100 uL of 10-fold dilution of compound of interest starting at 10 uM. Following culture for 72 hours, 3-(4, 5-dimethyl-2-thiazolyl)-2, 5-diphenyltetrazolium bromide (MTT; Sigma) at 2 mg/mL was added to each well (50 uL/well) and further incubated for 4 hours at 37° C. The medium was flicked out and 200 uL of a 1:1 solution of ethanol:acetone followed by 25 uL of glycine buffer (0.1 M glycine, 0.1M NaCl, pH 10.5) is added and the color measured by the absorbance at 570 nm.

The test system of experiment [5] is HT29. As to the kind of experiment: Cytotoxicity (MTT), HT29. It is filed as cell-based. Conditions: Homo sapiens, HT-29, 72 hours, 2500 cells/well. The method, then:
as §3, §4

Experiment [6] deals with HMVEC. The experiment can be described thus: Cytotoxicity (MTT), HMVEC. It is filed as cell-based. As to conditions: 72 hours, 5000 cells/well. The protocol: as §3, §4
The target in experiment [7] is T1, αvβ3. The experiment can be described thus: Cell attachment assay, αvβ3. It counts as cell-based. Conditions: 1 hour at 37° C. The protocol: as §2
For experiment [8], the target named is T4, αvβ5 (Homo sapiens, UniProt P06756+P18084).
T4 construct: Cells HT29, K562, or K562 transfected with αvβ3; endogenous in cells; host or cells: HT29
The experiment can be described thus: Cell attachment assay, αvβ5. As to conditions: 1 hour at 37° C. It counts as cell-based. The protocol:
as §2

T4 sequence (P06756 31-889 limits assumed): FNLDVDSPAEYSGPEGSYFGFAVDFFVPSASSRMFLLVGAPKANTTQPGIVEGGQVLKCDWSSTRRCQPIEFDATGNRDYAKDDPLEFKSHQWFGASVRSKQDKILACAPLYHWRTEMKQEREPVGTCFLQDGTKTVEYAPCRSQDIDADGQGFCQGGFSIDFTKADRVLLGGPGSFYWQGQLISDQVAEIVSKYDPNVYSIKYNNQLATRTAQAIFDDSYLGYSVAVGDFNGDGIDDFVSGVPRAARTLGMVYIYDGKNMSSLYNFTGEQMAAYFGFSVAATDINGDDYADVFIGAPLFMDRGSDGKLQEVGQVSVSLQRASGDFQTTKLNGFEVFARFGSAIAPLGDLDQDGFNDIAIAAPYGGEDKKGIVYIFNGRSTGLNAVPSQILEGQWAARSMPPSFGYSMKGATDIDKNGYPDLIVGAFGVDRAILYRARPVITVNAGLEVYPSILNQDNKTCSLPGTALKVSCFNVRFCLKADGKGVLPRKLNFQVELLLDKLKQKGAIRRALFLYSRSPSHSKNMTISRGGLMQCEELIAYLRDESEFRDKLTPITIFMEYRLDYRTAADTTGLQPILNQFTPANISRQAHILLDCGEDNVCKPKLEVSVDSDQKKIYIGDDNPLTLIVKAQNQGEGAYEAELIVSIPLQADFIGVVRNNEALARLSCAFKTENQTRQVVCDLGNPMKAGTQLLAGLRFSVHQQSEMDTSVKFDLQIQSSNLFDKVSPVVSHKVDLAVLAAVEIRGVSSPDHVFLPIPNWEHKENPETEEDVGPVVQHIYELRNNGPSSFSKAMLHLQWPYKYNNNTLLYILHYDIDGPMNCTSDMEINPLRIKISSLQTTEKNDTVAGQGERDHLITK
T4 sequence (P06756 891-1048 limits assumed): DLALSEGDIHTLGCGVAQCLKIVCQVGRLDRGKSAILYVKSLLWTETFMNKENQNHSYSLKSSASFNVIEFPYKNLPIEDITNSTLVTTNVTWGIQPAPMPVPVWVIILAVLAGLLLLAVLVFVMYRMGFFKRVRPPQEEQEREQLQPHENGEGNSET
T4 sequence (P18084 24-799): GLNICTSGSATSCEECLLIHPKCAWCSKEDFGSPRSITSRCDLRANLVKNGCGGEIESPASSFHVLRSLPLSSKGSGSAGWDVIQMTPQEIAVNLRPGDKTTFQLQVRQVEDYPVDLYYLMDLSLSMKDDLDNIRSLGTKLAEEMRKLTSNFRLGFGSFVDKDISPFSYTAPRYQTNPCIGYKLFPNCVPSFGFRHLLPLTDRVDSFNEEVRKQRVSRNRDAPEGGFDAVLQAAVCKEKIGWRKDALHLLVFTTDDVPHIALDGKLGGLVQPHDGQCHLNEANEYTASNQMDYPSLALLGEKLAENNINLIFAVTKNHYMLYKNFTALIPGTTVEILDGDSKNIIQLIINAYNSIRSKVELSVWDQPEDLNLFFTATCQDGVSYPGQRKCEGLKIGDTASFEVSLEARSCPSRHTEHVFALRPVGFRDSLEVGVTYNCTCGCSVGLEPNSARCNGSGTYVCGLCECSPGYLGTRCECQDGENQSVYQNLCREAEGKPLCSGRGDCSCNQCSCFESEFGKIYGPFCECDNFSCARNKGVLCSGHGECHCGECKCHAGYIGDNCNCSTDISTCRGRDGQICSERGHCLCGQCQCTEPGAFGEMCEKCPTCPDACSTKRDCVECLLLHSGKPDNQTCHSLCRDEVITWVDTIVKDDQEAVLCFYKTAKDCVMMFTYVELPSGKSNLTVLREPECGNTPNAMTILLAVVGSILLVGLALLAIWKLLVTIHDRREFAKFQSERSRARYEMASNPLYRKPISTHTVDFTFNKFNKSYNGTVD
T1 sequence (P06756 31-889 limits assumed): as the sequence (P06756 31-889 limits assumed) above
T1 sequence (P06756 891-1048 limits assumed): as the sequence (P06756 891-1048 limits assumed) above
T1 sequence (P05106 27-788): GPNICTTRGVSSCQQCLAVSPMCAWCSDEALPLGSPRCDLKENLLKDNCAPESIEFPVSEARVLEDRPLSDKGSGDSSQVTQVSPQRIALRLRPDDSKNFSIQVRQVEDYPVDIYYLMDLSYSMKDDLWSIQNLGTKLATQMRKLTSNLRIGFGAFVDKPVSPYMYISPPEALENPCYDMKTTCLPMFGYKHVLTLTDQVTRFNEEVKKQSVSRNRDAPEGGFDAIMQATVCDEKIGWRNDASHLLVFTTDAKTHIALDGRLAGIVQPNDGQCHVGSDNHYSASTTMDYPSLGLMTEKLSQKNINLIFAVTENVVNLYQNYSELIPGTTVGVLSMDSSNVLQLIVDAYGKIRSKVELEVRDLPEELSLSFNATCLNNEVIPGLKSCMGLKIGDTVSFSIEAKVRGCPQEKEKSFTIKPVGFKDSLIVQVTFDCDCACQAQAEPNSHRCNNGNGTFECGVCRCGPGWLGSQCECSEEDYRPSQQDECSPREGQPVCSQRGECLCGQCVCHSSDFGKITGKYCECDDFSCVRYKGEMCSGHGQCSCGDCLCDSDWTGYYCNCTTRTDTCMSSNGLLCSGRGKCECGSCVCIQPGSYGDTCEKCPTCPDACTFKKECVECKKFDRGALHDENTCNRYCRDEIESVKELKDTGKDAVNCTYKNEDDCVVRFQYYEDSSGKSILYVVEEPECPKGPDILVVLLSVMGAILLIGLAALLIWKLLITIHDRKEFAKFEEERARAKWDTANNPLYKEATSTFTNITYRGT
T2 sequence (P08514 32-887 limits assumed): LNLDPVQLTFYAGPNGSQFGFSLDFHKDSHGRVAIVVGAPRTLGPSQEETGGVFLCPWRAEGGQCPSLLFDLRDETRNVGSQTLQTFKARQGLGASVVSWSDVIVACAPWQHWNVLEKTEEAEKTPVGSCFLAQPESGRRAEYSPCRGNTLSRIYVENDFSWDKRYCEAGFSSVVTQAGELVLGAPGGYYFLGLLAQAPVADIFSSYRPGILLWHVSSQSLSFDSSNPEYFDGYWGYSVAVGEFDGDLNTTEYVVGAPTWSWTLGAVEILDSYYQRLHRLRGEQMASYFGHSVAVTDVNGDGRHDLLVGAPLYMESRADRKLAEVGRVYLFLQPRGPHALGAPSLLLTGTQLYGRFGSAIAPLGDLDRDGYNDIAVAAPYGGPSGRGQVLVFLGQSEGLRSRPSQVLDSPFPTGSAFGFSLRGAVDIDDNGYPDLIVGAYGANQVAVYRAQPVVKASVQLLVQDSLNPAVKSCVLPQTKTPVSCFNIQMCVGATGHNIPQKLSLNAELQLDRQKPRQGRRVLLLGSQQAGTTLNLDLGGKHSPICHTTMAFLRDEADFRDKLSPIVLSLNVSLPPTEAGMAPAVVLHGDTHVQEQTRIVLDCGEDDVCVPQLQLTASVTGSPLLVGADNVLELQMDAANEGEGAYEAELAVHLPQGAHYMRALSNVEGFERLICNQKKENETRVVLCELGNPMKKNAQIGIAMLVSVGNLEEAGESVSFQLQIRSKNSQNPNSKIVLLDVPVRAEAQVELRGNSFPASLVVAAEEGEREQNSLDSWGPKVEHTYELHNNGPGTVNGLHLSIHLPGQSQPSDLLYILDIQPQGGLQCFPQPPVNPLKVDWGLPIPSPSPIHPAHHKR
T2 sequence (P08514 891-1039 limits assumed): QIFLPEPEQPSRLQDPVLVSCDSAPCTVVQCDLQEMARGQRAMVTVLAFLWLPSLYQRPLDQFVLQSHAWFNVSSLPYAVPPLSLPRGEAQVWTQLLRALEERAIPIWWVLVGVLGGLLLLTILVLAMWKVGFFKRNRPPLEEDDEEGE
T2 sequence (P05106 27-788): as the sequence (P05106 27-788) above

As for `CCOC(=O)[C@H](CNC(=O)c1ccc(-c2cccc(NC(=N)N)c2)s1)NS(=O)(=O)c1c(C)cc(C)cc1C` [AB-2, 5-(3-Guanidino-phenyl)-thiophene-2-carboxylic acid [2-carbamoyl-2-(2,4,6-trimethyl-benzenesulfonylamino)-ethyl]-carboxylic acid ethyl ester], the IC50 (as a rule, the concentration that inhibits the measured activity by half) in experiment [1] came to 104 nM.

Turning to `Cc1cc(C)c(S(=O)(=O)N[C@@H](CNC(=O)c2ccc(-c3cccc(NC(=N)N)c3)s2)C(=O)O)c(C)c1` [Compound M-3, 3-{[5-(3-Guanidino-phenyl)-thiophene-2-carbonyl]-amino}-2-(2,4,6-trimethyl-benzenesulfonylamino)-propionic acid (trifluoroacetic acid salt)], the IC50 in experiment [2] is 1.1 nM; in experiment [3] it was 34 nM; in experiment [1], 1.9 nM; in experiment [4], 260 nM; in experiment [5], 6900 nM; in experiment [6], 140 nM. Moreover, the IC50 is 0.018 nM in experiment [7] and 1.6 nM in experiment [8]. The Selectivity in experiment [1] is listed as 0.6.

As for `N=C(N)NCc1cccc(-c2ccc(C(=O)NC[C@H](NS(=O)(=O)c3ccccc3)C(=O)O)s2)c1` [Compound E-2, 2-Benzenesulfonylamino-3-{[5-(3-guanidinomethyl-phenyl)-thiophene-2-carbonyl]-amino}-propionic acid trifluoroacetic acid salt], the IC50 in experiment [2] is 0.55 nM; in experiment [3], 640 nM; in experiment [1], 2.7 nM; in experiment [4], 1300 nM; in experiment [5], above 10000 nM; in experiment [6] it was 200 nM. Moreover, the concentration for half-maximal inhibition (IC50) in experiment [7] was 0.18 nM; in experiment [8] it was 72 nM. Further, the Selectivity in experiment [1] stood at 0.2.

Regarding `Cc1cc(C)c(S(=O)(=O)NC(CNC(=O)c2ccc(-c3cccc(NC(=N)N)c3)s2)C(N)=O)c(C)c1` (stereo not shown) [AB-4, 5-(3-Guanidino-phenyl)-thiophene-2-carboxylic acid [2-carbamoyl-2-(2,4,6-trimethyl-benzenesulfonylamino)-ethyl]-amide hydrochloride salt], in experiment [1], the IC50 worked out at 36.3 nM.

For `Cc1cc(C)c(S(=O)(=O)N[C@@H](CNC(=O)c2ccc(-c3cccc(CNC(=N)N)c3)s2)C(=O)O)c(C)c1` [Compound F-2, 3-{[5-(3-Guanidinomethyl-phenyl)-thiophene-2-carbonyl]-amino}-2-(2,4,6-trimethyl-benzenesulfonylamino)-propionic acid trifluoroacetic acid salt], the IC50 in experiment [2] was 0.25 nM; in experiment [3], 71 nM; in experiment [1], 8.2 nM; in experiment [4], 190 nM; in experiment [5] it was 4600 nM; in experiment [6], 31 nM. Further, the results for the 50% inhibitory concentration (IC50) in experiment [7] and in experiment [8] were 2.9 nM and 11 nM, respectively. The same compound showed a Selectivity in experiment [1] of 0.03.

Take `Cc1cc(C)c(S(=O)(=O)NC(CNC(=O)c2ccc(-c3cccc(NC(=N)N)c3)s2)C(N)=O)c(C)c1` (stereo not shown) [AC-1, 5-(3-Guanidino-phenyl)-thiophene-2-carboxylic acid [2-carbamoyl-2-(2,4,6-trimethyl-benzenesulfonylamino)-ethyl]-amide hydrochloride salt]: the IC50 in experiment [1] was 290 nM.

In the case of `N=C(N)Nc1cccc(-c2ccc(C(=O)NC[C@H](NS(=O)(=O)c3ccccc3)C(=O)O)s2)c1` [Compound K-3, 2-Benzenesulfonylamino-3-{[5-(3-guanidino-phenyl)-thiophene-2-carbonyl]-amino}-propionic acid (trifluoroacetic acid salt)], the IC50 in experiment [2] was 1.4 nM; in experiment [3] it was 80 nM; in experiment [1], 1.5 nM; in experiment [4], 320 nM; in experiment [5], 5100 nM; in experiment [6], 45 nM. Also, the IC50 in experiment [7] stood at 2.8 nM; in experiment [8], 6.4 nM. Besides, the Selectivity in experiment [1] is 1.

With `Cc1cc(C)c(S(=O)(=O)N[C@@H](CNC(=O)c2ccc(/C=C/CNC(=N)N)s2)C(=O)O)c(C)c1` [Compound U-2, (S)-3-{[5-(3-Guanidino-(E)-propenyl)-thiophene-2-carbonyl]-amino}-2-(2,4,6-trimethyl-benzenesulfonylamino)-propionic acid trifluoroacetic acid salts], the IC50 was 0.54 nM in experiment [2]; 6.1 nM in experiment [3]; 0.5 nM in experiment [1]; 180 nM in experiment [4]; 4800 nM in experiment [5]; 26 nM in experiment [6]. The IC50 in experiment [7] worked out at 1.5 nM; in experiment [8], 6 nM. Besides, in experiment [1], the Selectivity was determined as 1.

As for `Cc1cc(C)c(S(=O)(=O)NC(CNC(=O)c2ccc(-c3cccc(NC(=N)N)c3)s2)C(=O)Nc2nccs2)c(C)c1` (stereo not shown) [Compound X-5, 5-(3-Guanidino-phenyl)-thiophene-2-carboxylic acid [2-(thiazol-2-ylcarbamoyl)-2-(2,4,6-trimethyl-benzenesulfonylamino)-ethyl]-amide hydrochloride salt], in experiment [1], the IC50 came out at 360 nM.
